Assay results reported in paper PMC7756784 (Chemistry (Weinheim an Der Bergstrasse, Germany), 2020).

Target: human galectin-1 (Gal-1) (Homo sapiens, UniProt P09382)
Assay: ITC, single-site model
Type: binding
Conditions: 50 mM sodium phosphate, 150 mM NaCl, pH 7.4, 1 mM TCEP

Chain of human galectin-1 (Gal-1) (P09382 2-135): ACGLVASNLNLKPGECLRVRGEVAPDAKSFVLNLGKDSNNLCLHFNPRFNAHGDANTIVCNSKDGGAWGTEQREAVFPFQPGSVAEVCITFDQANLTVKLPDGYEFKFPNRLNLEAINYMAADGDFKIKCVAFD

Kd	Structure (SMILES)
319 µM	CC(=O)N[C@H]1C(O)O[C@H](CO)[C@@H](O[C@@H]2O[C@H](CO)[C@H](O)[C@H](O)[C@H]2O[C@@H]2O[C@@H](C)[C@@H](O)[C@@H](O)[C@@H]2O)[C@@H]1O (some centres unmarked) [compound 3, H type‐II]
379 µM	CC(=O)N[C@H]1C(O)O[C@H](CO)[C@@H](O[C@@H]2O[C@H](CO)[C@H](O)[C@H](O[C@H]3O[C@H](CO)[C@H](O)[C@H](O)[C@H]3O)[C@H]2O[C@@H]2O[C@@H](C)[C@@H](O)[C@@H](O)[C@@H]2O)[C@@H]1O (some centres unmarked) [compound 4, B type‐II]
